Earlier results as cited in patent US20120282337A1, “Modified Release Formulation” (BOEHRINGER INGELHEIM INTERNATIONAL GMBH, priority 2006, published 2012).
Where a name gives a salt, the structure may show the parent alone.

How the values were obtained:
[1] = not given; remark: listed apart in the source
[2] = in vivo
[3] = target: dopamine D2 receptor (Homo sapiens, UniProt P14416)
Chain of dopamine D2 receptor (P14416 whole entry, species assumed): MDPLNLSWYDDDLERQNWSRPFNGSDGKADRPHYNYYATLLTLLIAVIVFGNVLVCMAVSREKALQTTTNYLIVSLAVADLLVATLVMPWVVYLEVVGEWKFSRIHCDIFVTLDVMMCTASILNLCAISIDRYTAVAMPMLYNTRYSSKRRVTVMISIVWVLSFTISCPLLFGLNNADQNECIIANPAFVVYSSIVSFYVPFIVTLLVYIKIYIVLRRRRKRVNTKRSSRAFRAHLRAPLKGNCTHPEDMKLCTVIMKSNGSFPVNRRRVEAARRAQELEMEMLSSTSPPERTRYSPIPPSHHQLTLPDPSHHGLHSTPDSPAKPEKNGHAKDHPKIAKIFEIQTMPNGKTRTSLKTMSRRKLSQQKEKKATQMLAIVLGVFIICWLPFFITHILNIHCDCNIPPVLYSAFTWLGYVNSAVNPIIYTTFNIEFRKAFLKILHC

CCCN[C@H]1CCc2nc(N)sc2C1 [Pramipexole dihydrochloride monohydrate, pramipexole dihydrochloride monohydrate]
solubility in buffer media (between pH 2 and pH 7.4): above 10 mg/ml | Water solubility (water): more than 20 mg/ml

CCCN[C@H]1CCc2nc(N)sc2C1 [Pramipexole, (S)-2-Amino-4,5,6,7-tetrahydro-6-(propylamino)benzothiazole]
stability in solution ([1]; in solution): light sensitive | stability in the solid state ([1]; solid state): very stable | kinetics [2]: linear kinetics | agonist type at dopamine D2 receptor [3]: full agonist
